The structures appear in SMILES notation.

Type in all cases: biochemical
Assay [1] addresses PDE1A (Homo sapiens, UniProt P54750). Put plainly: PDE1 inhibition assay (PDE1A), SPA with tritium labelled cAMP. To be noted: 15 nM tritium labelled cAMP, 1 hr at room temperature, SPA beads. Here is the method:
(§1) PDE1A, PDE1B and PDE1C assays were performed as follows: the assays were performed in 60 μL samples containing a fixed amount of the PDE1 enzyme (sufficient to convert 20-25% of the cyclic nucleotide substrate), a buffer (50 mM HEPES (4-(2-hydroxyethyl)-1-piperazineethanesulfonic acid) pH 7.6; 10 mM MgCl2; 0.02% Tween20), 0.1 mg/ml BSA (bovine serum albumin), 15 nM tritium labelled cAMP and varying amounts of inhibitors. Reactions were initiated by addition of the cyclic nucleotide substrate, and reactions were allowed to proceed for 1 hr at room temperature before being terminated through mixing with 20 μL (0.2 mg) yttrium silicate SPA beads (PerkinElmer). The beads were allowed to settle for 1 hr in the dark before the plates were counted in a Wallac 1450 Microbeta counter. The measured signals were converted to activity relative to an uninhibited control (100%) and IC50 values were calculated using XIFit (model 205, IDBS).

The target of assay [2] is PDE1B (Homo sapiens, UniProt Q01064). In words: PDE1 inhibition assay (PDE1B), SPA with tritium labelled cAMP. To be noted: 15 nM tritium labelled cAMP, 1 hr at room temperature, SPA beads; read-out: PDE1B, IC50. Here is the method:
Reactions were initiated by addition of the cyclic nucleotide substrate, and reactions were allowed to proceed for 1 hr at room temperature before being terminated through mixing with 20 μL (0.2 mg) yttrium silicate SPA beads (PerkinElmer).

Assay [3] has as its target PDE1C (Homo sapiens, UniProt Q14123). In words: PDE1 inhibition assay (PDE1C), SPA with tritium labelled cAMP. To be noted: 15 nM tritium labelled cAMP, 1 hr at room temperature, SPA beads. Here is the method:
as §1

Chain of PDE1C (Q14123 whole entry): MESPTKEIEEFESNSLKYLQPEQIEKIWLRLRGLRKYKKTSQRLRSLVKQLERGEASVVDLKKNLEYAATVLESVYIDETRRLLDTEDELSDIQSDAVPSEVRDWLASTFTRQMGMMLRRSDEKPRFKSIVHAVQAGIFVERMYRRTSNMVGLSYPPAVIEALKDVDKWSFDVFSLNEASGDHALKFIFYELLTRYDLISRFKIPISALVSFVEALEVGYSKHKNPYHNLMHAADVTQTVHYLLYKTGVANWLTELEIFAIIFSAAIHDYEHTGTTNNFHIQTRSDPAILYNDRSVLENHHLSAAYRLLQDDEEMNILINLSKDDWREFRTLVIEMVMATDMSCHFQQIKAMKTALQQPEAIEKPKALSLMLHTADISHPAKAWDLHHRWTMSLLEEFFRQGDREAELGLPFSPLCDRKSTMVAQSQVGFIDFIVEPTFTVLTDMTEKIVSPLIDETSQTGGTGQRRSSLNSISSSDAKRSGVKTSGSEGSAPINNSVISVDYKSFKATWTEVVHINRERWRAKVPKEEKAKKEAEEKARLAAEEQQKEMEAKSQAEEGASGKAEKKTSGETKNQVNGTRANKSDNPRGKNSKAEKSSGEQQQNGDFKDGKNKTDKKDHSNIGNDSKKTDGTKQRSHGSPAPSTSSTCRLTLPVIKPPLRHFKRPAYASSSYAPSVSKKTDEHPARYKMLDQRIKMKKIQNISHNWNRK
Chain of PDE1A (P54750 whole entry): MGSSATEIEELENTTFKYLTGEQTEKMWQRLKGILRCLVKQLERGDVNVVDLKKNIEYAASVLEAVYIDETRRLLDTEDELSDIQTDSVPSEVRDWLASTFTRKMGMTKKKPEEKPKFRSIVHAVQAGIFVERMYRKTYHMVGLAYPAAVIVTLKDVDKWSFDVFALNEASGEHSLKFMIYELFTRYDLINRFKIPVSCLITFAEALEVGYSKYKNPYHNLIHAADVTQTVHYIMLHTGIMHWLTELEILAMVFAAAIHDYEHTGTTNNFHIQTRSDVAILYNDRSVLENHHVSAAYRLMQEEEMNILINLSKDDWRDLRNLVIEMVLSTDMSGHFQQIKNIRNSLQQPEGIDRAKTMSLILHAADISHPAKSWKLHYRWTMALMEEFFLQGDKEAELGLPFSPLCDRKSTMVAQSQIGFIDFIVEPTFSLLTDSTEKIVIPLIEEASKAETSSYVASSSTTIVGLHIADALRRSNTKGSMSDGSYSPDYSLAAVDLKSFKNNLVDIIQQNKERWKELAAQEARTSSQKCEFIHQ
Chain of PDE1B (Q01064 whole entry): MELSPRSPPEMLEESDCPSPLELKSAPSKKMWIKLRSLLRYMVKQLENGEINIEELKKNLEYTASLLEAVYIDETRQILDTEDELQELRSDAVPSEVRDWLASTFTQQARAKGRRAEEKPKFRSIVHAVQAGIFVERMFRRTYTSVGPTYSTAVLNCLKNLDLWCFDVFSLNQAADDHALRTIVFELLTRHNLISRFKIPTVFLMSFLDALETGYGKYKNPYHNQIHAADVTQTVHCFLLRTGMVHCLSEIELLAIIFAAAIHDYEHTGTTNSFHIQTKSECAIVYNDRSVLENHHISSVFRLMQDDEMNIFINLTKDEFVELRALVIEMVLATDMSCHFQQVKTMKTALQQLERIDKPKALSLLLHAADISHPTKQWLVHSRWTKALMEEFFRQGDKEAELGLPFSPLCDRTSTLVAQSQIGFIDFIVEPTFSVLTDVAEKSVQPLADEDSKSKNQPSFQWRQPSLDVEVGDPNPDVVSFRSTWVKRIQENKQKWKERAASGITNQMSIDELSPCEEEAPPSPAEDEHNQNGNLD

With `CCOc1ncccc1-c1cc(NCc2cncc(OC)c2)c2c(C(C)C)nn(C)c2n1` [Example 25, 6-(2-ethoxy-3-pyridyl)-3-isopropyl-N-[(5-methoxy-3-pyridyl)methyl]-1-methyl-pyrazolo[3,4-b]pyridin-4-amine], the IC50 in assay [1] is 16 nM; in assay [2], 6.3 nM; in assay [3], 18 nM.

For the compound `CCOc1ncccc1-c1cc(NCc2ncccn2)c2c(C(C)C)nn(C)c2n1` [Example 36, 6-(2-ethoxy-3-pyridyl)-3-isopropyl-1-methyl-N-(pyrimidin-2-ylmethyl)pyrazolo[3,4-b]pyridin-4-amine], the IC50 in assay [1] is 50 nM; in assay [2] it was 4 nM; in assay [3] it was 77 nM.

Consider `CCOc1cnccc1-c1cc(NCc2cnn(C)c2)c2c(C(C)C)nc(C)n2n1` [Example 70, 2-(3-ethoxy-4-pyridyl)-5-isopropyl-7-methyl-N-[(1-methylpyrazol-4-yl)methyl]imidazo[1,5-b]pyridazin-4-amine], for which the IC50 is 21 nM in assay [1], 6.3 nM in assay [2] and 28 nM in assay [3].

Take `CCOc1cnccc1-c1cc(NCc2ncn(C)n2)c2c(C(C)C)nn(C)c2n1` [Example 68, 6-(3-ethoxy-4-pyridyl)-3-isopropyl-1-methyl-N-[(1-methyl-1,2,4-triazol-3-yl)methyl]pyrazolo[3,4-b]pyridin-4-amine]: the IC50 in assay [1] amounted to 58 nM; in assay [2], 5.5 nM; in assay [3], 59 nM.

As for `CCOc1ncccc1-c1cc(NCc2nnn(C)n2)c2c(C(C)C)nc(C)n2n1` [Example 23, 2-(2-ethoxy-3-pyridyl)-5-isopropyl-7-methyl-N-[(2-methyltetrazol-5-yl)methyl]imidazo[1,5-b]pyridazin-4-amine], the figures for the IC50 in assay [1], in assay [2] and in assay [3] were 5.4 nM, 0.77 nM and 4.7 nM, respectively.

`COc1ncccc1-c1cc(NCc2ncn(C)n2)c2c(C(C)C)nn(C)c2n1` [Example 55, 3-isopropyl-6-(2-methoxy-3-pyridyl)-1-methyl-N-[(1-methyl-1,2,4-triazol-3-yl)methyl]pyrazolo[3,4-b]pyridin-4-amine]: the figures for the IC50 in assay [1], in assay [2] and in assay [3] were 130 nM, 30 nM and 45 nM, respectively.

On to `CCOc1ncccc1-c1cc(NCc2cccc(C)n2)c2c(C(C)C)nn(C)c2n1` [Example 42, 6-(2-ethoxy-3-pyridyl)-3-isopropyl-1-methyl-N-[(6-methyl-2-pyridyl)methyl]pyrazolo[3,4-b]pyridin-4-amine], for which the IC50 is 180 nM in assay [1], 20 nM in assay [2] and 200 nM in assay [3].

`CCOc1ncccc1-c1cc(NCc2cccnc2C(F)(F)F)c2c(C(C)C)nn(C)c2n1` [Example 38, 6-(2-ethoxy-3-pyridyl)-3-isopropyl-1-methyl-N-[[2-(trifluoromethyl)-3-pyridyl]methyl]pyrazolo[3,4-b]pyridin-4-amine]: the IC50 amounted to 180 nM in assay [1], 33 nM in assay [2] and 180 nM in assay [3].

As to `CCOc1ncccc1-c1cc(NCc2cc[nH]n2)c2c(C(C)C)nn(C)c2n1` [Example 3, 6-(2-ethoxy-3-pyridyl)-3-isopropyl-1-methyl-N-(1H-pyrazol-3-ylmethyl)pyrazolo[3,4-b]pyridin-4-amine], the results for the IC50 in assay [1], in assay [2] and in assay [3] were 56 nM, 4.3 nM and 58 nM, respectively.

`CCCOc1nnccc1-c1cc(NCc2ncn(C)n2)c2c(C(C)C)nn(C)c2n1` [Example 67, 3-isopropyl-1-methyl-N-[(1-methyl-1,2,4-triazol-3-yl)methyl]-6-(3-propoxypyridazin-4-yl)pyrazolo[3,4-b]pyridin-4-amine]: the values for the IC50 in assay [1], in assay [2] and in assay [3] were 7.8 nM, 2.7 nM and 19 nM, respectively.

For the compound `Cc1sccc1-c1cc(NCc2ncn(C)n2)c2c(C(C)C)nn(C)c2n1` [Example 58, 3-isopropyl-1-methyl-6-(2-methyl-3-thienyl)-N-[(1-methyl-1,2,4-triazol-3-yl)methyl]pyrazolo[3,4-b]pyridin-4-amine], the IC50 in assay [1] was found to be 29 nM; in assay [2], 4.6 nM; in assay [3], 31 nM.

Regarding `CCOc1ncccc1-c1cc(NCc2ccnc(OC)c2)c2c(C(C)CC)nc(C)n2n1` (single isomer, unassigned; (+)) [Example 53, (+)-2-(2-ethoxy-3-pyridyl)-N-[(2-methoxy-4-pyridyl)methyl]-7-methyl-5-[1-methylpropyl]imidazo[1,5-b]pyridazin-4-amine], the IC50 amounted to 62 nM in assay [1], 12 nM in assay [2] and 11 nM in assay [3].

`Cc1nc(C(C)C)c2c(NCc3ncn(C)n3)cc(-c3cccc4ncoc34)nn12` [Example 81, 2-(1,3-benzoxazol-7-yl)-5-isopropyl-7-methyl-N-[(1-methyl-1,2,4-triazol-3-yl)methyl]imidazo[1,5-b]pyridazin-4-amine]: the results for the IC50 in assay [1], in assay [2] and in assay [3] were 3.8 nM, 0.29 nM and 2.5 nM, respectively.

With `CCOc1ncccc1-c1cc(NCc2ccn(C)n2)c2c(C(C)C)nc(C)n2n1` [Example 24, 2-(2-ethoxy-3-pyridyl)-5-isopropyl-7-methyl-N-[(1-methylpyrazol-3-yl)methyl]imidazo[1,5-b]pyridazin-4-amine], the IC50 came out at 14 nM in assay [1], 1.8 nM in assay [2] and 13 nM in assay [3].

With `CCOc1ncccc1-c1cc(NCc2nc(C)no2)c2c(C(C)C)nn(C)c2n1` [Example 32, 6-(2-ethoxy-3-pyridyl)-3-isopropyl-1-methyl-N-[(3-methyl-1,2,4-oxadiazol-5-yl)methyl]pyrazolo[3,4-b]pyridin-4-amine], the IC50 amounted to 82 nM in assay [1], 7.8 nM in assay [2] and 63 nM in assay [3].

Regarding `COc1ncncc1-c1cc(NCc2ncn(C)n2)c2c(C(C)C)nn(C)c2n1` [Example 64, 3-isopropyl-6-(4-methoxypyrimidin-5-yl)-1-methyl-N-[(1-methyl-1,2,4-triazol-3-yl)methyl]pyrazolo[3,4-b]pyridin-4-amine], the IC50 amounted to 66 nM in assay [1], 13 nM in assay [2] and 2.9 nM in assay [3].

For `CCOc1ncccc1-c1cc(NCc2cn(C)nn2)c2c(C(C)C)nn(C)c2n1` [Example 29, 6-(2-ethoxy-3-pyridyl)-3-isopropyl-1-methyl-N-[(1-methyltriazol-4-yl)methyl]pyrazolo[3,4-b]pyridin-4-amine], the IC50 was 18 nM in assay [1], 1.6 nM in assay [2] and 33 nM in assay [3].

Regarding `CCOc1ncccc1-c1cc(NCc2noc(C)n2)c2c(C(C)C)nc(C)n2n1` [Example 12, 2-(2-ethoxy-3-pyridyl)-5-isopropyl-7-methyl-N-[(5-methyl-1,2,4-oxadiazol-3-yl)methyl]imidazo[1,5-b]pyridazin-4-amine], the concentration for half-maximal inhibition (IC50) turned out to be 3.6 nM in assay [1], 0.35 nM in assay [2] and 4 nM in assay [3].

Regarding `CCOc1ncccc1-c1cc(NCc2coc(C)n2)c2c(C(C)C)nn(C)c2n1` [Example 2, 6-(2-ethoxy-3-pyridyl)-3-isopropyl-1-methyl-N-[(2-methyloxazol-4-yl)methyl]pyrazolo[3,4-b]pyridin-4-amine], the IC50 in assay [1] turned out to be 81 nM; in assay [2], 15 nM; in assay [3], 99 nM.

Regarding `CCOc1ncccc1-c1cc(NCc2cccnc2F)c2c(C(C)C)nc(C)n2n1` [Example 73, 2-(2-ethoxy-3-pyridyl)-N-[(2-fluoro-3-pyridyl)methyl]-5-isopropyl-7-methyl-imidazo[1,5-b]pyridazin-4-amine], the IC50 in assay [1] was 33 nM; in assay [2] it was 3.6 nM; in assay [3] it was 29 nM.

In the case of `CCOc1ncccc1-c1cc(NCc2ccnc(OC)c2)c2c(C(C)C)nn(C)c2n1` [Example 7, 6-(2-ethoxy-3-pyridyl)-3-isopropyl-N-[(2-methoxy-4-pyridyl)methyl]-1-methyl-pyrazolo[3,4-b]pyridin-4-amine], the values for the half-inhibitory concentration (IC50) in assay [1], in assay [2] and in assay [3] were 14 nM, 2.6 nM and 18 nM, respectively.

As for `CCOc1ncccc1-c1cc(NCc2ccccn2)c2c(C(C)C)nc(C)n2n1` [Example 74, 2-(2-ethoxy-3-pyridyl)-5-isopropyl-7-methyl-N-(2-pyridylmethyl)imidazo[1,5-b]pyridazin-4-amine], the IC50 came to 180 nM in assay [1], 27 nM in assay [2] and 190 nM in assay [3].

Consider `CCCOc1ncccc1-c1cc(NCc2cnn(C)c2)c2c(C(C)C)nc(C)n2n1` [Example 71, 5-isopropyl-7-methyl-N-[(1-methylpyrazol-4-yl)methyl]-2-(2-propoxy-3-pyridyl)imidazo[1,5-b]pyridazin-4-amine], for which the IC50 in assay [1] amounted to 3.3 nM; in assay [2], 1 nM; in assay [3], 7 nM.

For `CCOc1ncccc1-c1cc(NCc2cnn(C)c2)c2c(C(C)C)nn(C)c2n1` [Example 19, 6-(2-ethoxy-3-pyridyl)-3-isopropyl-1-methyl-N-[(1-methylpyrazol-4-yl)methyl]pyrazolo[3,4-b]pyridin-4-amine], the values for the IC50 in assay [1], in assay [2] and in assay [3] were 44 nM, 5.8 nM and 56 nM, respectively.

Source of the values: patent US10351561B2, “Pyrazolo[3,4-b]pyridines and imidazo[1,5-b]pyridazines as PDE1 inhibitors” (H. Lundbeck A/S, priority 2016, dated 2019).
